For orientation: EC50 means the midpoint of the concentration-response curve. Read a low EC50 as higher potency in that assay.

Bounds are passed on as bounds.

This test deals with AMPK. As to the kind of experiment: AMPK activation, enzyme-linked immunosorbent assay. In kind it is biochemical. The protocol: Compounds were assayed for their ability to activate AMPK using an enzyme-linked immunosorbent assay. Reagents and procedures for measuring AMPK activation are well known and kits for AMPK activation assays are commercially available.
On to `N#Cc1ccc(CN2CCC(NC(=O)c3ccc(C(=O)N4CCC(Cc5ccccc5)CC4)cn3)CC2)cc1` [Compound 124, 5-(4-benzylpiperidine-1-carbonyl)-N-(1-(4-cyanobenzyl)piperidin-4-yl)picolinamide], for which the EC50 is under 500 nM.
For `N#Cc1ccc(O[C@H]2CC[C@@H](NC(=O)c3ccc(C(=O)N4CCC(Oc5cccc(NC(=O)C6CC6)c5)CC4)nc3)CC2)cc1` [Compound 434, N-((cis)-4-(4-cyanophenoxy)cyclohexyl)-6-(4-(3-(cyclopropanecarboxamido)phenoxy)piperidine-1-carbonyl)nicotinamide], the EC50 was under 500 nM.
As for `N#Cc1ccc(OC2CCN(C(=O)c3ccc(C(=O)N[C@H]4CC[C@@H](Oc5ccc(F)cc5)CC4)cn3)CC2)cc1` [Compound 324, 6-(4-(4-cyanophenoxy)piperidine-1-carbonyl)-N-((cis)-4-(4-fluorophenoxy)cyclohexyl)nicotinamide], the EC50 was under 500 nM.
Compound `N#Cc1ccc(CN2CCC(NC(=O)c3ccc(Nc4ccc(Cc5ccccc5)cc4)cn3)CC2)cc1` [Compound 108, 5-(4-benzylphenylamino)-N-(1-(4-cyanobenzyl)piperidin-4-yl)picolinamide] returned an EC50 of 500 to 1000 nM.
Next, `N#Cc1ccc(O[C@H]2CC[C@@H](NC(=O)c3ccc(C(=O)N4CCC(C(=O)c5ccc(N6CCCC6)cc5)CC4)nc3)CC2)cc1` [Compound 442, N-((cis)-4-(4-cyanophenoxy)cyclohexyl)-6-(4-(4-(pyrrolidin-1-yl)benzoyl)piperidine-1-carbonyl)nicotinamide]: under 500 nM.
`COc1ccc(C(=O)C2CCN(C(=O)c3ccc(C(=O)N[C@@H]4CCN(Cc5ccc(OC(C)C)cc5)C[C@H]4F)cn3)CC2)cc1` (relative stereo) [Compound 353, N-((trans)-3-fluoro-1-(4-isopropoxybenzyl)piperidin-4-yl)-6-(4-(4-methoxybenzoyl)piperidine-1-carbonyl)nicotinamide] showed an EC50 of under 500 nM.
Next, `COc1ccc(C(=O)C2CCN(C(=O)c3ccc(C(=O)N[C@@H]4CCN(Cc5ccc(OC(F)(F)F)cc5)C[C@H]4F)cn3)CC2)cc1` (relative stereo) [Compound 350, N-((trans)-3-fluoro-1-(4-(trifluoromethoxy)benzyl)piperidin-4-yl)-6-(4-(4-methoxybenzoyl)piperidine-1-carbonyl)nicotinamide]: under 500 nM; `O=C(N[C@H]1CC[C@@H](Oc2ccc(F)cc2)CC1)c1ccc(C(=O)N2CCC(Oc3ccc(F)cc3)CC2)cn1` [Compound 312, N-((cis)-4-(4-fluorophenoxy)cyclohexyl)-5-(4-(4-fluorophenoxy)piperidine-1-carbonyl)picolinamide]: under 500 nM.
The same measure for `COc1ccc(C(=O)C2CCN(C(=O)c3ccc(C(=O)N[C@H]4CC[C@@H](Oc5ccc(F)cc5)CC4)nc3)CC2)cc1` [Compound 311, N-((cis)-4-(4-fluorophenoxy)cyclohexyl)-5-(4-(4-methoxybenzoyl)piperidine-1-carbonyl)picolinamide]: under 500 nM.
Next, `O=C(N[C@H]1CC[C@@H](Oc2ccc(F)cc2)CC1)c1ccc(C(=O)N2CCC(C(=O)c3ccc(F)cc3)CC2)cn1` [Compound 304, 5-(4-(4-fluorobenzoyl)piperidine-1-carbonyl)-N-((cis)-4-(4-fluorophenoxy)cyclohexyl)picolinamide]: under 500 nM; `COc1ccc(C(=O)C2CCN(C(=O)c3ccc(C(=O)N[C@@H]4CCN(Cc5csc(C)n5)C[C@@H]4F)cn3)CC2)cc1` [Compound 427, N-((3S,4R)-3-fluoro-1-((2-methylthiazol-4-yl)methyl)piperidin-4-yl)-6-(4-(4-methoxybenzoyl)piperidine-1-carbonyl)nicotinamide]: 1000 to 5000 nM; `COc1ccc(C(=O)C2CCN(C(=O)c3ccc(C(=O)N[C@H]4CC[C@@H](Oc5ccc(F)cc5)CC4)cn3)CC2)cc1` [Compound 316, N-((cis)-4-(4-fluorophenoxy)cyclohexyl)-6-(4-(4-methoxybenzoyl)piperidine-1-carbonyl)nicotinamide]: under 500 nM.
Turning to `COc1ccc(C(=O)C2CCN(C(=O)c3ccc(C(=O)N[C@@H]4CCN(Cc5ccc(C#N)cc5)C[C@@H]4F)cn3)CC2)cc1` (relative stereo) [Compound 454, N-((cis)-1-(4-cyanobenzyl)-3-fluoropiperidin-4-yl)-6-(4-(4-methoxybenzoyl)piperidine-1-carbonyl)nicotinamide], the EC50 is under 500 nM.
The same measure for `COc1ccc(C(=O)C2CCN(C(=O)c3ccc(C(=O)N[C@@H]4CCN(Cc5cc(C)on5)C[C@@H]4F)cn3)CC2)cc1` [Compound 426, N-((3S,4R)-3-fluoro-1-((5-methylisoxazol-3-yl)methyl)piperidin-4-yl)-6-(4-(4-methoxybenzoyl)piperidine-1-carbonyl)nicotinamide]: under 500 nM; for `N#Cc1ccc(O[C@H]2CC[C@@H](NC(=O)c3ccc(C(=O)N4CCC(Oc5ccc(C(F)(F)F)cc5)CC4)cn3)CC2)cc1F` [Compound 199, N-((cis)-4-(4-cyano-3-fluorophenoxy)cyclohexyl)-5-(4-(4-(trifluoromethyl)phenoxy)piperidine-1-carbonyl)picolinamide]: under 500 nM.
Next, `CS(=O)(=O)c1ccc(N2CCC(NC(=O)c3ccc(C(=O)N4CCN(Cc5ccc(F)cc5)CC4)nc3)CC2)cc1` [Compound 421, 6-(4-(4-fluorobenzyl)piperazine-1-carbonyl)-N-(1-(4-(methylsulfonyl)phenyl)piperidin-4-yl)nicotinamide]: 1000 to 5000 nM.
`N#Cc1ccc(CN2CCc3ccc(NC(=O)c4ccc(C(=O)N5CCN(Cc6ccc(F)cc6)CC5)cn4)cc3C2)cc1` [Compound 132, N-(2-(4-cyanobenzyl)-1,2,3,4-tetrahydroisoquinolin-7-yl)-5-(4-(4-fluorobenzyl)piperazine-1-carbonyl)picolinamide]: the EC50 is under 500 nM.
For `N#Cc1ccc(CN2CC[C@@H](NC(=O)c3ccc(C(=O)N4CCC(Oc5ccc(S(=O)(=O)C(F)(F)F)cc5)CC4)nc3)C(F)C2)cc1` (stereo in doubt) [Compound 451, N-((3S,4R)-1-(4-cyanobenzyl)-3-fluoropiperidin-4-yl)-6-(4-(4-(trifluoromethylsulfonyl)phenoxy)piperidine-1-carbonyl)nicotinamide], the EC50 was under 500 nM.
The same measure for `COc1ccc(C(=O)C2CCN(C(=O)c3ccc(C(=O)N[C@@H]4CCN(Cc5ccc(C#N)c(F)c5)C[C@H]4F)cn3)CC2)cc1` (relative stereo) [Compound 354, N-((trans)-1-(4-cyano-3-fluorobenzyl)-3-fluoropiperidin-4-yl)-6-(4-(4-methoxybenzoyl)piperidine-1-carbonyl)nicotinamide]: under 500 nM; for `COc1ccc(C(=O)C2CCN(C(=O)c3ccc(C(=O)N[C@H]4CC[C@@H](Oc5cc(F)cc(F)c5)CC4)nc3)CC2)cc1` [Compound 300, N-((cis)-4-(3,5-difluorophenoxy)cyclohexyl)-5-(4-(4-methoxybenzoyl)piperidine-1-carbonyl)picolinamide]: under 500 nM.
Next, `N#Cc1ccc(OC2CCN(C(=O)c3ccc(C(=O)N[C@H]4CC[C@@H](Oc5ccc(C#N)cc5)CC4)cn3)CC2)cc1` [Compound 321, N-((cis)-4-(4-cyanophenoxy)cyclohexyl)-6-(4-(4-cyanophenoxy)piperidine-1-carbonyl)nicotinamide]: under 500 nM; `N#Cc1ccc(O[C@H]2CC[C@@H](NC(=O)c3ccc(C(=O)N4CCN(Cc5ccc(F)cc5)CC4)nc3)CC2)cc1` [Compound 332, N-((cis)-4-(4-cyanophenoxy)cyclohexyl)-6-(4-(4-fluorobenzyl)piperazine-1-carbonyl)nicotinamide]: under 500 nM.
The same measure for `N#Cc1ccc(CN2CCC(NC(=O)c3ccc(C(=O)N4CCC(Oc5ccc(C#N)cc5)CC4)nn3)CC2)cc1` [Compound 388, N-(1-(4-cyanobenzyl)piperidin-4-yl)-6-(4-(4-cyanophenoxy)piperidine-1-carbonyl)pyridazine-3-carboxamide]: under 500 nM; for `N#Cc1ccc(OC2CCN(C(=O)c3ccc(C(=O)N[C@H]4CC[C@@H](Oc5ccc(F)cc5)CC4)nc3)CC2)cc1` [Compound 303, 5-(4-(4-cyanophenoxy)piperidine-1-carbonyl)-N-((cis)-4-(4-fluorophenoxy)cyclohexyl)picolinamide]: under 500 nM; for `CC(=O)c1ccc(OC2CCN(C(=O)c3ccc(C(=O)NC4CCC(Oc5ccc(C#N)cc5)CC4)cn3)CC2)cc1` (stereo not shown) [Compound 402, 6-(4-(4-acetylphenoxy)piperidine-1-carbonyl)-N-(4-(4-cyanophenoxy)cyclohexyl)nicotinamide]: under 500 nM.
